Source: the supplement of paper PMC10307832

What was measured:
Test in all cases: relative viability (nuclei count vs DMSO), 5 days (fraction); higher = more cells survive
NCI-H2228 = test system: NCI-H2228
Method in brief: (§1)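 Cells from lung cancer lines were seeded into 1536-well plates and, one day later, dosed by pin tool. Treatments were either a single drug or a fixed dose of an anchor drug with five library-drug doses (not always all listed) in √10 steps. After 5 days, nuclei were stained in a one-step fixation (final 0.05% Triton X-100, 1% formaldehyde, 1 ug/ml Hoechst) and counted on 4× images, and relative viability is the treated-to-vehicle nuclei ratio, as the median of duplicate plates.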

NCI-H1355 = test system: NCI-H1355
Method in brief: as §1

NCI-H2087 = test system: NCI-H2087
Method in brief: as §1

LCLC-97TM1 = test system: LCLC-97TM1
Method in brief: as §1

NCI-H661 = test system: NCI-H661
Method in brief: as §1

CAL-12T = test system: CAL-12T
Method in brief: as §1

NCI-H322M = test system: NCI-H322M
Method in brief: as §1

LC-2-ad = test system: LC-2-ad
Method in brief: as §1

NCI-H1666 = test system: NCI-H1666
Method in brief: as §1

NCI-H838 = test system: NCI-H838
Method in brief: as §1

NCI-H1915 = test system: NCI-H1915
Method in brief: as §1

NCI-H2085 = test system: NCI-H2085
Method in brief: as §1

H3255 = test system: H3255
Method in brief: as §1

NCI-H1792 = test system: NCI-H1792
Method in brief: as §1

RERF-LC-KJ = test system: RERF-LC-KJ
Method in brief: as §1

UMC-11 = test system: UMC-11
Method in brief: as §1

NCI-H1651 = test system: NCI-H1651
Method in brief: as §1

NCI-H1563 = test system: NCI-H1563
Method in brief: as §1

PC-3 [JPC-3] = test system: PC-3 [JPC-3]
Method in brief: as §1

A-427 = test system: A-427
Method in brief: as §1

ABC-1 = test system: ABC-1
Method in brief: as §1

NCI-H358 = test system: NCI-H358
Method in brief: as §1

LK-2 = test system: LK-2
Method in brief: as §1

NCI-H1395 = test system: NCI-H1395
Method in brief: as §1

SK-MES-1 = test system: SK-MES-1
Method in brief: as §1

CCCCCCCCCCCC1=C(O)C(=O)C=C(O)C1=O [Embelin] + CC(C)C[C@H](NC(=O)[C@H](Cc1ccccc1)NC(=O)c1cnccn1)B(O)O [Bortezomib] (partner 0.002 µM)
relative viability (NCI-H2228; first compound 0.08 µM): 0.939
relative viability (NCI-H2228; first compound 0.8 µM): 1.03
relative viability (NCI-H2228; first compound 2.53 µM): 1.29
relative viability (NCI-H2228; first compound 8 µM): 1.26
relative viability (NCI-H1355; first compound 0.08 µM): 1.16
relative viability (NCI-H1355; first compound 0.8 µM): 1.24
relative viability (NCI-H1355; first compound 2.53 µM): 1.21
relative viability (NCI-H1355; first compound 8 µM): 1.02
relative viability (NCI-H2087; first compound 0.08 µM): 0.83
relative viability (NCI-H2087; first compound 0.8 µM): 0.807
relative viability (NCI-H2087; first compound 2.53 µM): 0.735
relative viability (NCI-H2087; first compound 8 µM): 0.935
relative viability (LCLC-97TM1; first compound 0.08 µM): 0.812
relative viability (LCLC-97TM1; first compound 0.8 µM): 0.774
relative viability (LCLC-97TM1; first compound 2.53 µM): 0.29
relative viability (LCLC-97TM1; first compound 8 µM): 0.907
relative viability (NCI-H661; first compound 0.08 µM): 0.961
relative viability (NCI-H661; first compound 0.8 µM): 0.867
relative viability (NCI-H661; first compound 2.53 µM): 0.997
relative viability (NCI-H661; first compound 8 µM): 0.78
relative viability (CAL-12T; first compound 0.08 µM): 0.996
relative viability (CAL-12T; first compound 0.8 µM): 1.27
relative viability (CAL-12T; first compound 8 µM): 1.04
relative viability (NCI-H322M; first compound 0.08 µM): 1.21
relative viability (NCI-H322M; first compound 0.8 µM): 1.34
relative viability (NCI-H322M; first compound 2.53 µM): 1.44
relative viability (NCI-H322M; first compound 8 µM): 1.29
relative viability (LC-2-ad; first compound 0.08 µM): 0.959
relative viability (LC-2-ad; first compound 0.8 µM): 1.1
relative viability (LC-2-ad; first compound 2.53 µM): 1.05
relative viability (LC-2-ad; first compound 8 µM): 1.02
relative viability (NCI-H1666; first compound 0.08 µM): 0.655
relative viability (NCI-H1666; first compound 0.8 µM): 1.05
relative viability (NCI-H1666; first compound 2.53 µM): 0.922
relative viability (NCI-H1666; first compound 8 µM): 0.829
relative viability (NCI-H838; first compound 0.08 µM): 1.38
relative viability (NCI-H838; first compound 0.8 µM): 1.12
relative viability (NCI-H838; first compound 2.53 µM): 0.72
relative viability (NCI-H838; first compound 8 µM): 0.936
relative viability (NCI-H1915; first compound 0.08 µM): 0.951
relative viability (NCI-H1915; first compound 0.8 µM): 1.02
relative viability (NCI-H1915; first compound 2.53 µM): 1.13
relative viability (NCI-H1915; first compound 8 µM): 0.998
relative viability (NCI-H2085; first compound 0.08 µM): 0.989
relative viability (NCI-H2085; first compound 0.8 µM): 1.07
relative viability (NCI-H2085; first compound 2.53 µM): 1.07
relative viability (NCI-H2085; first compound 8 µM): 1.03
relative viability (H3255; first compound 0.08 µM): 0.962
relative viability (H3255; first compound 0.8 µM): 0.975
relative viability (H3255; first compound 2.53 µM): 0.702
relative viability (H3255; first compound 8 µM): 0.889
relative viability (NCI-H1792; first compound 0.08 µM): 0.93
relative viability (NCI-H1792; first compound 0.8 µM): 1
relative viability (NCI-H1792; first compound 2.53 µM): 1.09
relative viability (NCI-H1792; first compound 8 µM): 1.03
relative viability (RERF-LC-KJ; first compound 0.08 µM): 0.984
relative viability (RERF-LC-KJ; first compound 0.8 µM): 1.31
relative viability (RERF-LC-KJ; first compound 2.53 µM): 1.3
relative viability (RERF-LC-KJ; first compound 8 µM): 1.19
relative viability (UMC-11; first compound 0.08 µM): 0.771
relative viability (UMC-11; first compound 0.8 µM): 0.966
relative viability (UMC-11; first compound 2.53 µM): 0.896
relative viability (UMC-11; first compound 8 µM): 0.547
relative viability (NCI-H1651; first compound 0.08 µM): 0.958
relative viability (NCI-H1651; first compound 0.8 µM): 0.92
relative viability (NCI-H1651; first compound 2.53 µM): 1.01
relative viability (NCI-H1651; first compound 8 µM): 1.02
relative viability (NCI-H1563; first compound 0.08 µM): 1.06
relative viability (NCI-H1563; first compound 0.8 µM): 0.953
relative viability (NCI-H1563; first compound 2.53 µM): 0.787
relative viability (NCI-H1563; first compound 8 µM): 0.753
relative viability (PC-3 [JPC-3]; first compound 0.08 µM): 0.831
relative viability (PC-3 [JPC-3]; first compound 0.8 µM): 0.908
relative viability (PC-3 [JPC-3]; first compound 2.53 µM): 0.927
relative viability (PC-3 [JPC-3]; first compound 8 µM): 0.806
relative viability (A-427; first compound 0.08 µM): 1.05
relative viability (A-427; first compound 0.8 µM): 1.11
relative viability (A-427; first compound 2.53 µM): 0.978
relative viability (A-427; first compound 8 µM): 0.904
relative viability (ABC-1; first compound 0.08 µM): 0.299
relative viability (ABC-1; first compound 0.8 µM): 0.371
relative viability (ABC-1; first compound 2.53 µM): 0.252
relative viability (ABC-1; first compound 8 µM): 0.257

CCCCCCCCCCCC1=C(O)C(=O)C=C(O)C1=O [Embelin] + Nc1ncn([C@H]2C[C@H](O)[C@@H](CO)O2)c(=O)n1 [Decitabine] (partner 2 µM)
relative viability (NCI-H358; first compound 0.08 µM): 0.2
relative viability (NCI-H358; first compound 0.8 µM): 0.233
relative viability (NCI-H358; first compound 2.53 µM): 0.23
relative viability (NCI-H358; first compound 8 µM): 0.221
relative viability (LK-2; first compound 0.08 µM): 0.287
relative viability (LK-2; first compound 0.8 µM): 0.348
relative viability (LK-2; first compound 2.53 µM): 0.406
relative viability (LK-2; first compound 8 µM): 0.332
relative viability (NCI-H1355; first compound 0.08 µM): 0.333
relative viability (NCI-H1355; first compound 0.8 µM): 0.394
relative viability (NCI-H1355; first compound 2.53 µM): 0.421
relative viability (NCI-H1355; first compound 8 µM): 0.358
relative viability (NCI-H2087; first compound 0.08 µM): 0.278
relative viability (NCI-H2087; first compound 0.8 µM): 0.295
relative viability (NCI-H2087; first compound 2.53 µM): 0.361
relative viability (NCI-H2087; first compound 8 µM): 0.225
relative viability (LCLC-97TM1; first compound 0.08 µM): 0.241
relative viability (LCLC-97TM1; first compound 0.8 µM): 0.264
relative viability (LCLC-97TM1; first compound 2.53 µM): 0.266
relative viability (LCLC-97TM1; first compound 8 µM): 0.235
relative viability (NCI-H661; first compound 0.08 µM): 0.565
relative viability (NCI-H661; first compound 0.8 µM): 0.614
relative viability (NCI-H661; first compound 2.53 µM): 0.649
relative viability (NCI-H661; first compound 8 µM): 0.541
relative viability (NCI-H1395; first compound 0.08 µM): 0.712
relative viability (NCI-H1395; first compound 0.8 µM): 0.872
relative viability (NCI-H1395; first compound 2.53 µM): 0.699
relative viability (NCI-H1395; first compound 8 µM): 0.698
relative viability (NCI-H322M; first compound 0.08 µM): 0.603
relative viability (NCI-H322M; first compound 0.8 µM): 0.729
relative viability (NCI-H322M; first compound 2.53 µM): 0.813
relative viability (NCI-H322M; first compound 8 µM): 0.754
relative viability (SK-MES-1; first compound 0.08 µM): 0.436
relative viability (SK-MES-1; first compound 0.8 µM): 0.396
relative viability (SK-MES-1; first compound 2.53 µM): 0.361
relative viability (SK-MES-1; first compound 8 µM): 0.266
relative viability (LC-2-ad; first compound 0.08 µM): 0.788
relative viability (LC-2-ad; first compound 0.8 µM): 0.79
relative viability (LC-2-ad; first compound 2.53 µM): 0.795
relative viability (LC-2-ad; first compound 8 µM): 0.782
relative viability (NCI-H1666; first compound 0.08 µM): 0.712
relative viability (NCI-H1666; first compound 0.8 µM): 0.812
relative viability (NCI-H1666; first compound 2.53 µM): 0.78
relative viability (NCI-H1666; first compound 8 µM): 0.757
relative viability (NCI-H838; first compound 0.08 µM): 0.478
relative viability (NCI-H838; first compound 0.8 µM): 0.485
relative viability (NCI-H838; first compound 2.53 µM): 0.502
relative viability (NCI-H838; first compound 8 µM): 0.321
relative viability (NCI-H1915; first compound 0.08 µM): 0.265
relative viability (NCI-H1915; first compound 0.8 µM): 0.241
relative viability (NCI-H1915; first compound 2.53 µM): 0.263
relative viability (NCI-H1915; first compound 8 µM): 0.264
relative viability (NCI-H2085; first compound 0.08 µM): 0.538
relative viability (NCI-H2085; first compound 0.8 µM): 0.602
relative viability (NCI-H2085; first compound 2.53 µM): 0.531
relative viability (NCI-H2085; first compound 8 µM): 0.504
relative viability (H3255; first compound 0.08 µM): 0.502
relative viability (H3255; first compound 0.8 µM): 0.783
relative viability (H3255; first compound 2.53 µM): 0.617
relative viability (H3255; first compound 8 µM): 0.656
relative viability (NCI-H1792; first compound 0.08 µM): 0.603
relative viability (NCI-H1792; first compound 0.8 µM): 0.595
relative viability (NCI-H1792; first compound 2.53 µM): 0.615
relative viability (NCI-H1792; first compound 8 µM): 0.519
relative viability (RERF-LC-KJ; first compound 0.08 µM): 0.775
relative viability (RERF-LC-KJ; first compound 0.8 µM): 0.652
relative viability (RERF-LC-KJ; first compound 2.53 µM): 0.774
relative viability (RERF-LC-KJ; first compound 8 µM): 0.514
relative viability (UMC-11; first compound 0.08 µM): 0.616
relative viability (UMC-11; first compound 0.8 µM): 0.608
relative viability (UMC-11; first compound 2.53 µM): 0.631
relative viability (UMC-11; first compound 8 µM): 0.553
relative viability (NCI-H1651; first compound 0.08 µM): 0.634
relative viability (NCI-H1651; first compound 0.8 µM): 0.67
relative viability (NCI-H1651; first compound 2.53 µM): 0.867
relative viability (NCI-H1651; first compound 8 µM): 0.659
relative viability (PC-3 [JPC-3]; first compound 0.08 µM): 0.776
relative viability (PC-3 [JPC-3]; first compound 0.8 µM): 0.882
relative viability (PC-3 [JPC-3]; first compound 2.53 µM): 0.919
relative viability (PC-3 [JPC-3]; first compound 8 µM): 0.821
relative viability (A-427; first compound 0.08 µM): 0.494
relative viability (A-427; first compound 0.8 µM): 0.555
relative viability (A-427; first compound 2.53 µM): 0.561
relative viability (A-427; first compound 8 µM): 0.54
relative viability (ABC-1; first compound 0.08 µM): 1.02
relative viability (ABC-1; first compound 0.8 µM): 1.11
relative viability (ABC-1; first compound 2.53 µM): 1.04
relative viability (ABC-1; first compound 8 µM): 1.12
